Article PMC11623308 (2023)

System: 5'-biotin NRAS-G4 (RNA, G4) UGUGGGAGGGGCGGGUCUGGG
Test: SPR
Conditions: K+ 100 mM; 10 mM Tris pH 6.9, 0.005% Tween 20, 5% DMSO; Langmuir 1:1 fit

KD: 79 ± 1.2 nM
SMILES: CN(C)c1ccc(Nc2c3ccc(NC(=O)CCN4CCCC4)cc3nc3cc(NC(=O)CCN4CCCC4)ccc23)cc1
